The record followed here is patent US20230083012A1, “DIHYDROPYRIMIDINE DERIVATIVES AND USES THEREOF IN THE TREATMENT OF HBV INFECTION OR OF HBV-INDUCED DISEASES” (priority 2019, published 2023).

One data set relates to HBV. Description: Anti-HBV activity in HepG2.2.15 cells (HBV DNA in culture medium by qPCR). It counts as cell-based. The note with it: Hepatitis B virus, HepG2.2.15, 144 h, HepG2.2.15 cells, 6 days treatment, HBV DNA in culture medium quantified by real-time PCR; read-out: EC50. In a few lines: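 HepG2.2.15 cells in 2% FBS medium at 37 °C were treated with compounds for 6 days, with medium and compound refreshed at day 3; 1:3 dilutions, 8 concentrations in triplicate, top 10 or 1 uM. HBV DNA in culture medium quantified by qPCR to derive EC50; CC50 from parallel plates (top 100 uM).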

Data set [1] in a line: Cytotoxicity determination in HepG2.2.15 cells (CCK-8 cell viability). The note with it: human, 6 days treatment, CCK-8 assay, highest concentration 100 uM. The data set is classed as cell-based. In a few lines:
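HepG2.2.15 cells seeded at 5,000 cells/well in 2% FBS medium, exposed 6 days to compounds (8-point 1:3 dilutions from 100 uM, triplicate), refreshed at day 3. Viability read by CCK-8 after 2.5 h at 37° C, absorbance 450 nm with 630 nm reference; CC50 calculated.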
On the technique in general: Formazan colour is commonly taken as a measure of viable cells.

Regarding `CCOC(=O)C1=C(CN2CC(F)(F)[C@@H]3[C@H]2CON3CCC(C)(C)C(=O)O)NC(c2nccs2)=N[C@H]1c1ccc(F)cc1Cl` (single isomer, unassigned) [Compound 169, 4-((cis)-4-((6-(2-chloro-4-fluorophenyl)-5-(ethoxycarbonyl)-2-(thiazol-2-yl)-3,6-dihydropyrimidin-4-yl)methyl)-6,6-difluorohexahydro-1H-pyrrolo[3,2-c]isoxazol-1-yl)-2,2-dimethylbutanoic acid], in the data set with HBV, the EC50 was found to be 5 nM. Also, the CC50 at 6 days in data set [1] is above 50000 nM.

Regarding `CCOC(=O)C1=C(CN2CC(F)(F)[C@H]3[C@@H]2CCN3C(N)=O)NC(c2nccs2)=N[C@H]1c1cccc(F)c1C` (single isomer, unassigned) [Compound 36], the EC50 with HBV was 30.1 nM. In addition, it took 26000 nM to reach half-maximal cytotoxicity in data set [1] (CC50 at 6 days).

For `CCOC(=O)C1=C(CN2CC(F)(F)[C@@H]3[C@H]2CON3CCC(C)(C)C(=O)O)NC(c2nc(C)cs2)=N[C@H]1c1cccc(F)c1C` (single isomer, unassigned) [Compound 165, (cis)-4-(4-((5-(ethoxycarbonyl)-6-(3-fluoro-2-methylphenyl)-2-(4-methylthiazol-2-yl)-3,6-dihydropyrimidin-4-yl)methyl)-6,6-difluorohexahydro-1H-pyrrolo[3,2-c]isoxazol-1-yl)-2,2-dimethylbutanoic acid], the concentration for a half-maximal effect (EC50) with HBV stood at 8 nM. Moreover, the 50% cytotoxic concentration (CC50) at 6 days in data set [1] was above 50000 nM.

With `CCOC(=O)C1=C(CN2CC(F)(F)[C@H]3[C@@H]2CCN3CCC(C)(C)C(=O)O)NC(c2nc(C)cs2)=N[C@H]1c1cccc(F)c1C` (single isomer, unassigned) [Compound 118], the EC50 with HBV worked out at 5.4 nM. Besides, in data set [1], the CC50 at 6 days turned out to be 12700 nM.

With `CCOC(=O)C1=C(CN2C[C@H](F)[C@H]3[C@@H]2CCN3CC(C)(C)C(=O)O)NC(c2nccs2)=N[C@H]1c1cccc(F)c1C` (single isomer, unassigned) [Compound 11B], the EC50 in the data set with HBV was found to be 31.4 nM. In data set [1], this molecule returned a CC50 at 6 days of 30000 nM.

For the molecule `CCOC(=O)C1=C(CN2CC(F)(F)[C@H]3[C@@H]2CCN3CC(=O)NS(C)(=O)=O)NC(c2nccs2)=N[C@H]1c1cccc(F)c1C` (single isomer, unassigned) [Compound 8A], the EC50 in the data set with HBV came out at 6.9 nM. For the same molecule, the CC50 at 6 days in data set [1] came out at 36300 nM.

On to `CCOC(=O)C1=C(CN2CC(F)(F)[C@H]3[C@@H]2CCN3C(=O)NC(N)=O)NC(c2nccs2)=N[C@H]1c1cccc(F)c1C` (single isomer, unassigned) [Compound 63], for which, in the data set on HBV, the concentration for a half-maximal effect (EC50) is 11.8 nM. In data set [1], this molecule returned a CC50 at 6 days of 25200 nM.

With `CCOC(=O)C1=C(CN2CC(F)(F)[C@@H]3[C@H]2CON3CCC(C)(C)C(=O)O)NC(c2nccs2)=N[C@H]1c1ccc(F)c(F)c1Cl` (single isomer, unassigned) [Compound 163, (cis)-4-(4-((6-(2-chloro-3,4-difluorophenyl)-5-(ethoxycarbonyl)-2-(thiazol-2-yl)-3,6-dihydropyrimidin-4-yl)methyl)-6,6-difluorohexahydro-1H-pyrrolo[3,2-c]isoxazol-1-yl)-2,2-dimethylbutanoic acid], the EC50 in the data set with HBV turned out to be 2 nM. In addition, the midpoint of cytotoxicity in data set [1], the CC50 at 6 days, lay at 45600 nM.

`CCOC(=O)C1=C(CN2CC(F)(F)C3[C@@H]2CCN3C2CC(C)(C(=O)O)C2)NC(c2nccs2)=N[C@H]1c1cccc(F)c1C` (single isomer, unassigned) [Compound 112]: the EC50 with HBV came to 5.3 nM. The molecule also returned a cytotoxic concentration (CC50) at 6 days in data set [1] of 28600 nM.

As for `CCOC(=O)C1=C(CN2CC(F)(F)[C@H]3[C@@H]2CCN3C(=O)[C@H]2CC[C@H](C(=O)O)CC2)NC(c2nccs2)=N[C@H]1c1cccc(F)c1C` (single isomer, unassigned) [Compound 30], the EC50 with HBV was determined as 81.3 nM. Further, in data set [1], it took 28000 nM to reach half-maximal cytotoxicity (CC50 at 6 days).

Consider `CCOC(=O)C1=C(CN2CC(F)(F)C3CN(CC(C)C(=O)O)CC32)NC(c2nccs2)=N[C@H]1c1cccc(F)c1C` (stereo in doubt) [Compound 15, 3-((cis)-1-(((S)-5-(ethoxycarbonyl)-6-(3-fluoro-2-methylphenyl)-2-(thiazol-2-yl)-3,6-dihydropyrimidin-4-yl)methyl)-3,3-difluorohexahydropyrrolo[3,4-b]pyrrol-5(1H)-yl)-2-methylpropanoic acid], for which the EC50 in the data set with HBV was found to be 60.3 nM. Besides, the CC50 at 6 days in data set [1] was above 100000 nM.

With `CCOC(=O)C1=C(CN2CC(F)(F)[C@@H]3[C@H]2CON3C[C@@H](CC)C(=O)O)NC(c2nccs2)=N[C@H]1c1cccc(F)c1C` (single isomer, unassigned) [Compound 178A], in the data set on HBV, the EC50 stood at 3.5 nM. This molecule also yielded a CC50 at 6 days in data set [1] above 50000 nM.

As for `CCOC(=O)C1=C(CN2CC(F)(F)C3CN(C(=O)C(C)(C)C(=O)O)CC32)NC(c2nccs2)=N[C@H]1c1cccc(F)c1C` (stereo in doubt) [Compound 9, (cis)-3-(1-(((S)-5-(Ethoxycarbonyl)-6-(3-fluoro-2-methylphenyl)-2-(thiazol-2-yl)-3,6-dihydropyrimidin-4-yl)methyl)-3,3-difluorohexahydropyrrolo[3,4-b]pyrrol-5(1H)-yl)-2,2-dimethyl-3-oxopropanoic acid], in the data set on HBV, the EC50 was 41.7 nM. The molecule further had a 50% cytotoxic concentration (CC50) at 6 days in data set [1] of 76300 nM.

For `CCOC(=O)C1=C(CN2CC(F)(F)[C@H]3[C@@H]2CCN3C2CCC(C(=O)O)CC2)NC(c2nccs2)=N[C@H]1c1cccc(F)c1C` (single isomer, unassigned) [Compound 104B], the EC50 in the data set with HBV was 8 nM. For the same molecule, the CC50 at 6 days in data set [1] is above 6200 nM.

`COC(=O)C1=C(CN2CC(F)(F)[C@@H]3[C@H]2CN(C(C)=O)N3CCC(C)(C)C(=O)O)NC(c2nccs2)=N[C@H]1c1ccc(F)c(F)c1Cl` (single isomer, unassigned) [Compound 79A, 4-((cis)-2-acetyl-4-((6-(2-chloro-3,4-difluorophenyl)-5-(methoxycarbonyl)-2-(thiazol-2-yl)-3,6-dihydropyrimidin-4-yl)methyl)-6,6-difluorohexahydropyrrolo[3,2-c]pyrazol-1(2H)-yl)-2,2-dimethylbutanoic acid]: the EC50 in the data set with HBV came to 40 nM. Also, the CC50 at 6 days in data set [1] was above 50000 nM.

`CCOC(=O)C1=C(CN2CC(F)(F)C3C2CN(C(C)=O)N3CCC(CC)C(=O)O)NC(c2nccs2)=N[C@H]1c1cccc(F)c1C` (stereo partly shown) [Compound 78]: the EC50 with HBV stood at 49 nM. For the same molecule, it took 70300 nM to reach half-maximal cytotoxicity in data set [1] (CC50 at 6 days).

On to `CCOC(=O)C1=C(CN2CCC3C(=O)N(CC(C)(C)C(=O)O)C(=O)C32)NC(c2nccs2)=N[C@H]1c1cccc(F)c1C` (stereo partly shown) [Compound 4], for which the EC50 in the data set with HBV was determined as 56.4 nM. In data set [1], this molecule displayed a CC50 at 6 days of 47800 nM.

As to `CCOC(=O)C1=C(CN2C[C@@H](F)[C@]3(F)C(=O)N(CC(C)(C)C(=O)O)C[C@H]23)NC(c2nccs2)=N[C@H]1c1cccc(F)c1C` (single isomer, unassigned) [Compound 204D], the EC50 in the data set on HBV came out at 0.4 nM. Also, in data set [1], the midpoint of cytotoxicity, the CC50 at 6 days, lay at 48100 nM.

Turning to `CCOC(=O)C1=C(CN2CC(F)(F)[C@@H]3C(=O)N(CC4(C(=O)O)CC4)C[C@@H]32)NC(c2nccs2)=N[C@H]1c1cccc(F)c1C` (single isomer, unassigned) [Compound 184], in the data set on HBV, the EC50 was determined as 6.7 nM. Further, it took 48300 nM to reach half-maximal cytotoxicity in data set [1] (CC50 at 6 days).

Regarding `CCOC(=O)C1=C(CN2CC(F)(F)[C@@H]3[C@H]2CN(C)N3CCC(C)(C)C(=O)O)NC(c2nccs2)=N[C@H]1c1cccc(F)c1C` (relative stereo) [Compound 68A, 4-(4-(((S)-5-(ethoxycarbonyl)-6-(3-fluoro-2-methylphenyl)-2-(thiazol-2-yl)-3,6-dihydropyrimidin-4-yl)methyl)-6,6-difluoro-2-methylhexahydropyrrolo[3,2-c]pyrazol-1(2H)-yl)-2,2-dimethylbutanoic acid], in the data set with HBV, the EC50 is 7.4 nM. The molecule also came in with a CC50 at 6 days in data set [1] of 22200 nM.

`CCOC(=O)C1=C(CN2CC(F)(F)[C@@H]3[C@H]2CN(C(=O)[C@H]2CC2(F)F)N3CCC(C)(C)C(=O)O)NC(c2nccs2)=N[C@H]1c1cccc(F)c1C` (single isomer, unassigned) [Compound 72A]: the concentration giving a half-maximal response (EC50) in the data set on HBV worked out at 55 nM. Besides, the CC50 at 6 days in data set [1] was found to be 14500 nM.

In the case of `CCOC(=O)C1=C(CN2CC(F)(F)[C@@H]3CN(S(=O)(=O)[C@H]4C[C@H](C(=O)O)C4)C[C@@H]32)NC(c2nccs2)=N[C@H]1c1cccc(F)c1C` (single isomer, unassigned) [Compound 194], the EC50 in the data set on HBV was 71.3 nM. In data set [1], this molecule came in with a CC50 at 6 days of 36700 nM.

For `CCOC(=O)C1=C(CN2CC(F)(F)[C@H]3[C@@H]2CCN3S(C)(=O)=O)NC(c2nccs2)=N[C@H]1c1cccc(F)c1C` (single isomer, unassigned) [Compound 62], in the data set on HBV, the EC50 was 12.7 nM. Also, in data set [1], the CC50 at 6 days is 17300 nM.

Turning to `CCOC(=O)C1=C(CN2CC(F)(F)[C@@H]3[C@H]2CN(C(N)=O)N3CCC(C)(C)C(=O)O)NC(c2nccs2)=N[C@H]1c1cccc(F)c1C` (single isomer, unassigned) [Compound 76A], the EC50 with HBV worked out at 11 nM. The molecule further yielded a CC50 at 6 days in data set [1] of 28200 nM.

As to `CCOC(=O)C1=C(CN2CC(F)(F)C3CN(CC(C)(C)C(=O)O)C(=O)C32)NC(c2nccs2)=N[C@H]1c1cccc(F)c1C` (stereo partly shown) [Compound 13], the concentration for a half-maximal effect (EC50) in the data set with HBV was 8.4 nM. For the same molecule, the midpoint of cytotoxicity in data set [1], the CC50 at 6 days, lay at 50000 nM.

Take `CCOC(=O)C1=C(CN2CC(F)(F)[C@@H]3[C@H]2CN(C(=O)C2CC2)N3CCC(C)(C)C(=O)O)NC(c2nccs2)=N[C@H]1c1cccc(F)c1C` (single isomer, unassigned) [Compound 73]: the EC50 with HBV came out at 17 nM. The CC50 at 6 days in data set [1] was 26000 nM.

What is called EC50 is the concentration that produces a half-maximal response. In general, CC50 refers to the concentration giving 50% cytotoxicity. A high value points to better tolerance by the cells.
